# From article PMC5358098 (ACS chemical neuroscience, 2016)
# Read-outs that look alike come from different tables or passages of the source.
# Tests used:
# [1] = test system: hCB1R; experiment: Operational model bias analysis, HEK293A cells; type: cell-based, human; details: HEK293A; for ΔΔlog R β-arrestin1/cAMP / ΔΔlog R β-arrestin1/pPLCβ3: reference 2-AG + GAT100
# [2] = test system: CB1R
# [3] = biological target: T1, CB1R (Homo sapiens, UniProt P21554); type: cell-based; details: HEK293A, 30 min
# [4] = biological target: T1, CB1R; type: cell-based; details: Neuro2a, 30 min
# [5] = biological target: T1, CB1R; type: cell-based; details: HEK293A, 10 min
# [6] = biological target: T1, CB1R; experiment: cell-based; type: cell-based
# [7] = biological target: T2, CB1R (Mus musculus, UniProt P47746); type: cell-based; details: Neuro2a, 10 min
# [8] = biological target: T2, CB1R; experiment: Operational model bias analysis, STHdh^Q7/Q7 cells; details: STHdh^Q7/Q7
# [9] = biological target: T1, CB1R; experiment: cell-based; type: cell-based; remark: listed apart in the source
# [10] = biological target: T2, CB1R; details: STHdh^Q7/Q7; 1 μM + 500 nM CP55,940
# [11] = biological target: T2, CB1R; experiment: Operational model bias analysis, Neuro2a cells; type: cell-based; details: for ΔΔlog R β-arrestin1/pPLCβ3: reference 2-AG + GAT100
# [12] = test system: CB1R; type: cell-based; details: mean of data for the pathway (Table 2), all cells and orthosteric ligands
# [13] = test system: CB1R; details: cited from earlier work
# [14] = biological target: T1, CB1R; experiment: cell-based
# [15] = biological target: T2, CB1R; type: cell-based; details: Neuro2a, 10 min; remark: listed apart in the source
# [16] = test system: CB1R; type: cell-based; details: mean of data for the pathway (Table 3), all cells and orthosteric ligands
# [17] = biological target: T1, CB1R; experiment: [3H]SR141716A equilibrium binding, hCB1R CHO cell membranes
# [18] = 500 nM 2-AG + 1 nM-10 μM allosteric modulator
# [19] = 500 nM AEA + 1 nM-10 μM allosteric modulator
# [20] = 500 nM CP55,940 + 1 nM-10 μM allosteric modulator
# T2 sequence (P47746 whole entry): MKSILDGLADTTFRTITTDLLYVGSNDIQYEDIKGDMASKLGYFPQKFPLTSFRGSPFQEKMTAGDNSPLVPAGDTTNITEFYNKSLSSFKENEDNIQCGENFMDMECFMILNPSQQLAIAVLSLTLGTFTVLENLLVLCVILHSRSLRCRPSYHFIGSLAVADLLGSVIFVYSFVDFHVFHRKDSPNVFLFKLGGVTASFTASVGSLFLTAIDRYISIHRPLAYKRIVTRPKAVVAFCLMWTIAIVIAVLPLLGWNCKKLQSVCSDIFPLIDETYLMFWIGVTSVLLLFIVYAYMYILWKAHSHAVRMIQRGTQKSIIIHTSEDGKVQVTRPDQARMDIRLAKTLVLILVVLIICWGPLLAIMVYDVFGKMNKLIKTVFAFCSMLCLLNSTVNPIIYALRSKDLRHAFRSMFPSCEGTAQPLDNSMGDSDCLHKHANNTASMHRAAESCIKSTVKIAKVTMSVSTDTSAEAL
# T1 sequence (P21554 whole entry): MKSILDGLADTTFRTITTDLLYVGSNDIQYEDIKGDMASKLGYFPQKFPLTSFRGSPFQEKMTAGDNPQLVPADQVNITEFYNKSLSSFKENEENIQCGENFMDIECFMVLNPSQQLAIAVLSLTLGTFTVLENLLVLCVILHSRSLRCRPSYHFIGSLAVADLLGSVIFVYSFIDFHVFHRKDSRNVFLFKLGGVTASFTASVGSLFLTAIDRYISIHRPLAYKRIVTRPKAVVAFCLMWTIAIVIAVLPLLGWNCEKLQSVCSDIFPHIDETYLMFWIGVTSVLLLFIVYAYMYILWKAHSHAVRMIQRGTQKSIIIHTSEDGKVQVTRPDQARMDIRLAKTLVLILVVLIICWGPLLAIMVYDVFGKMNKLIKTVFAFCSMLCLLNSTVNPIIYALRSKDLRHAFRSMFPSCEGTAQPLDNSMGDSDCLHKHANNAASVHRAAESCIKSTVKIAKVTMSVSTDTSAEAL
structure (smiles),measurement,setting,value
"CCc1c(C(=O)NCCc2ccc(N3CCCCC3)cc2)[nH]c2ccc(Cl)cc12 [Org27569, 5-chloro-3-ethyl-N-(4-(piperidin-1-yl)phenethyl)-1H-indole-2-carboxamide]",BF β-arrestin1/cAMP,[1]; [18],0.2
same,BF β-arrestin1/pERK1/2,[1]; [18],0.1
same,BF β-arrestin1/pPLCβ3,[1]; [18],0.1
same,ΔΔlog R β-arrestin1/cAMP,[1]; [18],–0.6 ± 0.8
same,ΔΔlog R β-arrestin1/pPLCβ3,[1]; [18],–1.0 ± 0.9
same,BF β-arrestin1/cAMP,[1]; [19],0.1
same,BF β-arrestin1/pERK1/2,[1]; [19],15.8
same,BF β-arrestin1/pPLCβ3,[1]; [19],0.03
same,ΔΔlog R β-arrestin1/cAMP,[1]; [19],–1.2 ± 0.6
same,ΔΔlog R β-arrestin1/pPLCβ3,[1]; [19],–1.6 ± 0.6
same,BF β-arrestin1/cAMP,[1]; [20],1.0
same,BF β-arrestin1/pERK1/2,[1]; [20],4.0
same,BF β-arrestin1/pPLCβ3,[1]; [20],0.5
same,ΔΔlog R β-arrestin1/cAMP,[1]; [20],0.0 ± 0.6
same,ΔΔlog R β-arrestin1/pPLCβ3,[1]; [20],–0.3 ± 0.1
same,"Emax, 2-AG (probe dependence summary)",[2]; mean of data for 2-AG (Tables 1-4),0.49 ± 0.02
same,"Emax, AEA (probe dependence summary)",[2]; mean of data for AEA (Tables 1-4),0.45 ± 0.03
same,"Emax, CP55,940 (probe dependence summary)","[2]; mean of data for CP55,940 (Tables 1-4)",0.50 ± 0.04
same,"Emax, HEK293A (cell dependence summary)",[2]; mean of data for HEK293A (Tables 1-3),0.49 ± 0.02
same,"Emax, Neuro2a (cell dependence summary)",[2]; mean of data for Neuro2a (Tables 1-3),0.50 ± 0.02
same,"Emax, STHdh^Q7/Q7 (cell dependence summary)",[2]; mean of data for STHdh^Q7/Q7 (Tables 1-3),0.51 ± 0.02
same,"Emax (BRETEff), 2-AG",[3]; 1 nM-10 μM 2-AG + 1 μM NAM,0.49 ± 0.03
same,"Emax (BRETEff), AEA",[3]; 1 nM-10 μM AEA + 1 μM NAM,0.49 ± 0.02
same,"Emax (BRETEff), CP55,940","[3]; 1 nM-10 μM CP55,940 + 1 μM NAM",0.58 ± 0.03
same,"Emax (BRETEff), 2-AG",[4]; 1 nM-10 μM 2-AG + 1 μM NAM,0.47 ± 0.03
same,"Emax (BRETEff), AEA",[4]; 1 nM-10 μM AEA + 1 μM NAM,0.44 ± 0.02
same,"Emax (BRETEff), CP55,940","[4]; 1 nM-10 μM CP55,940 + 1 μM NAM",0.60 ± 0.05
same,"Emax pERK1/2/Total ERK1/2, 2-AG",[5]; 1 nM-10 μM 2-AG + 1 μM NAM,0.46 ± 0.02
same,"Emax pERK1/2/Total ERK1/2, AEA",[5]; 1 nM-10 μM AEA + 1 μM NAM,0.42 ± 0.02
same,"Emax pERK1/2/Total ERK1/2, CP55,940","[5]; 1 nM-10 μM CP55,940 + 1 μM NAM",0.40 ± 0.01
same,"Emax pPLCβ3/Total PLCβ3, 2-AG","[6]; HEK293A, 1 nM-10 μM 2-AG + 1 μM NAM, 10 min",0.52 ± 0.02
same,"Emax pPLCβ3/Total PLCβ3, AEA","[6]; HEK293A, 1 nM-10 μM AEA + 1 μM NAM, 10 min",0.49 ± 0.02
same,"Emax pPLCβ3/Total PLCβ3, CP55,940","[6]; HEK293A, 1 nM-10 μM CP55,940 + 1 μM NAM, 10 min",0.60 ± 0.03
same,IC50,"[6]; IC50, PLCβ3 phosphorylation, CP55,940",0.151 µM
same,"Emax pPLCβ3/Total PLCβ3, 2-AG",[7]; 1 nM-10 μM 2-AG + 1 μM NAM,0.53 ± 0.02
same,"Emax pPLCβ3/Total PLCβ3, AEA",[7]; 1 nM-10 μM AEA + 1 μM NAM,0.52 ± 0.02 ^††
same,"Emax pPLCβ3/Total PLCβ3, CP55,940","[7]; 1 nM-10 μM CP55,940 + 1 μM NAM",0.58 ± 0.02 ^††
same,BF β-arrestin1/pERK1/2,[8]; [18],0.5
same,BF β-arrestin1/pPLCβ3,[8]; [18],0.3
same,BF β-arrestin1/pERK1/2,[8]; [19],1.3
same,BF β-arrestin1/pPLCβ3,[8]; [19],0.2
same,BF β-arrestin1/pERK1/2,[8]; [20],0.3
same,BF β-arrestin1/pPLCβ3,[8]; [20],0.8
same,"Emax, cAMP (pathway ligand bias summary)",[9],0.31 ± 0.04 ^†
same,effect on cAMP levels in the absence of orthosteric agonists (inverse agonism),"[9]; HEK-CRE, 10 μM forskolin + 1 nM to 10 μM compound alone, 4 h",increased cAMP levels significantly
same,IC50,"[9]; IC50, cAMP, CP55,940",0.969 µM
same,Emax,"[9]; read-out: Emax (% cAMP inhibition), CP55,940",25.7 ± 1.64%
same,"effect on CP55,940-induced CB1R internalization (fraction of CB1R at the plasma membrane)",[10],reversed this effect
same,BF β-arrestin1/pERK1/2,[11]; [18],3.2
same,BF β-arrestin1/pPLCβ3,[11]; [18],0.6
same,ΔΔlog R β-arrestin1/pPLCβ3,[11]; [18],–0.2 ± 0.2
same,BF β-arrestin1/pERK1/2,[11]; [19],1.6
same,BF β-arrestin1/pPLCβ3,[11]; [19],4.0
same,ΔΔlog R β-arrestin1/pPLCβ3,[11]; [19],0.6 ± 0.2
same,BF β-arrestin1/pERK1/2,[11]; [20],3.2
same,BF β-arrestin1/pPLCβ3,[11]; [20],4.0
same,ΔΔlog R β-arrestin1/pPLCβ3,[11]; [20],0.6 ± 0.4
same,"Emax, PLCβ3 (pathway ligand bias summary)",[12],0.55 ± 0.01
same,"effect on CP55,940 equilibrium binding by CB1R",[13],"increase CP55,940 equilibrium binding"
same,IC50,[14],0.236 µM
same,"Emax, β-arrestin1 (pathway ligand bias summary)","[14]; mean of data for the pathway (Table 1), all cells and orthosteric ligands",0.50 ± 0.02
same,"Emax pERK1/2/Total ERK1/2, 2-AG",[15]; 1 nM-10 μM 2-AG + 1 μM NAM,0.48 ± 0.03
same,"Emax pERK1/2/Total ERK1/2, AEA",[15]; 1 nM-10 μM AEA + 1 μM NAM,0.44 ± 0.02
same,"Emax pERK1/2/Total ERK1/2, CP55,940","[15]; 1 nM-10 μM CP55,940 + 1 μM NAM",0.43 ± 0.02
same,"Emax, ERK (pathway ligand bias summary)",[16],0.45 ± 0.01
same,EC50,[17],2.52 µM
same,Emax,"[17]; read-out: Emax, [3H]SR141716A binding",-17.6%
